Assay results from patent US20240118267A1, “CELL CULTURE GROWTH APPARATUS AND METHOD OF UNDERSIDE ATTACHMENT TO A SURFACE USING CELL SEEDING” (Georgia Tech Research Corporation, priority 2021, published 2024).
Structures can show the parent of a compound that is named as a salt.

Tests used:
[1] = system: primary human neutrophils; test: Neutrophil transmigration to chemoattractant or sample in 96-well co-culture, counted by flow cytometry; type: cell-based; conditions: for number of counted transmigrated neutrophils versus chemoattractant dose: 3 healthy donors, 16 hours, two-way ANOVA p<0.0001
[2] = Sodium fluorescein permeability across epithelial-endothelial co-culture; type: in vitro ADME; conditions: human
HUVEC = test: Tolerance of HUVEC to puromycin in routine culture; type: cell-based, human; conditions: long time periods; unpublished observation
Excerpt: HUVEC maintenance in T-75 flasks. Primary Human Umbilical Vein Endothelial Cells were employed from ATCC (ATCC® PCS-100-013™) and expanded according to manufacturer instructions in Vascular Cell Basal Medium (ATCC® PCS-100-030™) supplemented with Endothelial Cell Growth Kit-VEGF (ATCC® PCS-100-041™) with added Penicillin-Streptomycin (Gibco™ 15140148) diluted 1:100 v:v. HUVECs were transduced to constitutively express RFP. […] Cells were passaged at 60-80% confluence according to manufacturer instructions, counted with Nexcelcom Cellometer Auto T4 Bright Field Cell Counter (Nexcelcom Bioscience) using Trypan Blue viability stain, and used below the passage 10 since expanding from ATCC.
Lentiviral transduction. H441 cells and HUVECs were transduced with lentivirus to constitutively express GFP and RFP, respectively. H441 cells were seeded in T-75 flasks at 0.75e6 cells/75 cm^2 and allowed to attach overnight. Then H441 cells were inoculated with GFP gene-bearing lentivirus with puromycin resistance (Brand, product #). Lentivirus (8 TU/cell) was suspended in H441 routine culture media with the addition of transfection reagent polybrene ([…]). The cells were inoculated overnight and then allowed to recover in routine cell culture media for 72 hours with media changes every 48 hours. […]

[3] = system: endothelium of H441-HUVEC co-culture; test: IL-8 on the endothelial side of the H441/HUVEC co-culture (ELISA); type: cell-based, human; conditions: 24-hour exposure on the epithelial side
Protocol: Then, IL-8 produced on the endothelial side was measured by ELISA (R&D Systems). […] Statistics were performed in GraphPad Prism 9.
Cytokine quantitation. Cell culture supernatants were collected at specified intervals. IL-6 and IL-8 were quantified with ELISA assays according to manufacturer instructions (Human IL-6 DuoSet ELISA, R&D Systems DY206-05; Human IL-8/CXCL8 DuoSet ELISA, R&D Systems, DY208-05; DuoSet ELISA Ancillary Reagent Kit 2, R&D Systems; DY008.

[4] = system: endothelium of H441-HUVEC co-culture; test: Endothelial von Willebrand factor release after epithelial exposure; type: cell-based, human; conditions: epithelial side exposed for 10 minutes
Protocol: Staining and imaging. All stains used reagents from ThermoFisher's Image-iT™ Fixation/Permeabilization Kit (R37602) for washing, fixing, blocking, and permeabilization. For all stains, inserts were cut out and fixed on glass slides for 10 minutes at 37° C. For stains requiring permeabilization, the inserts were incubated with 0.5% Triton X (ImageIT kit) for 5 minutes at 37° C. All inserts were blocked for 1 hour at 37° C., counterstained with DAPI (1:1000 in PBS for 5 minutes) and mounted between two coverslips with ProLong™ Diamond Antifade Mountant (Invitrogen). F-actin. After fixation, permeabilization, and blocking, inserts were incubated for 1 hour at 37° C. in Alexa Fluor™ 647 Phalloidin (Invitrogen) diluted 1:20 from stock solution in 1% BSA (Image-iT™). ZO-1/e-cadherin co-stain. After fixation, permeabilization, and blocking, the primary antibodies (ZO-1 Rabbit anti-human polyclonal antibody, ThermoFisher 61-7300, 1:200; e-cadherin Mouse anti-human monoclonal antibody, ThermoFisher 13-1700, 1:2000) were suspended together in 1% BSA (Image-It Kit) and co-incubated with the inserts for 2 hours at 37° C. The secondary antibodies (Goat anti-Rabbit IgG, Alexa Fluor 405, Abcam ab 175665, 1:200; Goat anti-mouse IgG, Alexa Fluor 647, ThermoFisher A32728, 1:500) were suspended in 1% BSA and incubated with the filters for 2 hours at 37° C. […]

In the case of `CCCCC/C=C\C[C@@H](O)/C=C/C=C/C=C\[C@@H](O)CCCC(=O)O` [LTB4, leukotriene B4], the “number of counted transmigrated neutrophils versus chemoattractant dose” value [1] is reported as “effect of chemoattractant dose”.
`O=C1OC2(c3ccc(O)cc3Oc3cc(O)ccc32)c2ccccc21` [NaFL, Fluorescein sodium salt] gave a Papp at 2 h, 30 µM ([2]; H441/HUVEC co-culture at ALI, S.D. 1.63e-5 cm/s, 95% CI 1.53e-6-1.25e-5 cm/s) of 7.04 ×10⁻⁶ cm/s and a Papp at 3 h, 30 µM ([2]; control, no exposure, at ALI, over a 3-hour period, n=4, read-out: permeability of the control bilayer co-culture) of 7.04 ×10⁻⁶ cm/s.
For `COc1ccc(C[C@H](N)C(=O)N[C@H]2[C@@H](O)[C@H](n3cnc4c(N(C)C)ncnc43)O[C@@H]2CO)cc1` [puromycin], the “tolerance by HUVEC in routine culture medium” value (HUVEC) was “did not tolerate it well for long time periods”.
With “IL-8: recombinant human protein IL-8 (HEK-expressed, activity tested), chemoattractant” the “number of counted transmigrated neutrophils versus chemoattractant dose” value [1] was “effect of chemoattractant dose” and the “neutrophil transmigration numbers versus concentration” value ([1]; 18 hour transmigration time) was “increase”.
For “polyinosinic:polycytidylic acid [poly(I:C)]”, the “endothelial release of IL-8” value [3] was “weakly dose-dependent” and the “endothelial von Willebrand factor (VWF) exocytosis” value [4] was “immediately exocytosed von Willebrand factor”.
